In assay [1] the test system is fluorescence of chlorophyll. Description: Fluorescence of chlorophyll of treated Crofton weed leaves. The assay is classed as biochemical. Conditions: 50 μg/mL, strong light 12 hours. As to the method: (§1) Compounds 10-57 were dissolved in small amount of methanol. The solutions were then diluted with distilled water to a concentration of 50 μg/mL. A mixture of methanol and water in the same ratio as the sample solution was also prepared and used as control in the experiment. The healthy leaves of Crofton weed were washed in water for 30 minutes and then rinsed with distilled water. The clean and tissue dried leaves were placed in petri dish with the back-side of the leaves facing up. Wet filter paper was also placed in the in petri dish for moisture control. Water, methanol and chemical solutions of the analogues were applied to the back-side of each leaf. Test sample was then placed in vacuum chamber at 25° C. for 15 min followed by exposure to the strong light (400 μM m^−2 s^−1) for 12 hours. The leaf sample went through a series of test, and the Hill reaction rate, the electron transfer activity and fluorescence of chlorophyll were measured. Four leaves were used for each treatment and each test was repeated three times.

The subject of assay [2] is Crofton weed. In words: Needle puncture pathogenic test on slightly wounded leaf of Crofton weed. The assay is classed as in vivo. Conditions: Crofton weed leaf, 50 μg/mL, 25° C., natural light. As to the method:
3-acetyl-5-sec-butyl-4-hydroxy-3-pyrrolin-2-one analogs were dissolved in a small amount of methanol and diluted with water to a concentration of 5-100 μg/g. A pathogenic test was conducted by placing the toxic liquid on the slightly wounded leaf of Crofton weed with a needle. The test has shown that the pathogenic capability of 3-acetyl-5-sec-butyl-4-hydroxy-3-pyrrolin-2-one analogs with respect to Crofton weed increases with the increase of concentration. The spot diameter caused on the leaf of Crofton weed after 24 hours was 2 mm at 50 μg/g.
3-acetyl-5-sec-butyl-4-hydroxy-3-pyrrolin-2-one analogue (Table 3, compounds 10-57) was dissolved in small amount of methanol. The solution was then diluted with distilled water to a concentration of 50 μg/mL. Methanol solution with same concentration and pure distilled water were used as control of the experiment. A pathogenic test was conducted by placing the toxic liquid on the slightly wounded leaf of Crofton weed with a needle. The experiment was carried out at 25° C. under the natural light and each test was repeated 6 times. It was measure the diameter of the spot after 24 h. […] The size of the side chain also has an effect on their activity.
Fourteen salts of 3-acetyl-5-sec-butyl-4-hydroxy-3-pyrrolin-2-one analogs were dissolved in small amount of methanol and diluted with distilled water to a concentration of 50 μg/mL. Methanol/water mixture was also prepared and used as control. Needle puncture method was used for the test on the small pieces of Crofton weed. Each treatment was repeated six times or more. The test samples were kept under natural light at 25° C. for 24 hours. The diameters of damaged spot of the plant leaves were measured by vernier caliper.

Assay [3] deals with photosystem II. Description: PSII oxygen evolution / electron transfer activity of treated Crofton weed leaves. It is filed as biochemical. Conditions: 50 μg/mL, strong light 12 hours. As to the method: as §1
For assay [4], the system named is Hill reaction. In words: Hill reaction activity of treated Crofton weed leaves. It is filed as biochemical. Conditions: 50 μg/mL, strong light 12 hours. As to the method:
as §1

These results are taken from patent US9468209B2, “Method for eradicating weeds with derivatives of 3-acetyl-5-sec-butyl-4-hydroxy-3-pyrrolin-2-one” (priority 2012, dated 2016).

`CCCC1NC(=O)C(C(C)=O)=C1O` (stereo not drawn) [Compound 13] showed a Fv/Fm in assay [1] of 0.85. In assay [2], the “Time of Disease spot” value came out at 16.70 ± 0.21 h and the “Average diameter of spot after 24 h” value is recorded as 5.21 ± 0.44 mm. In addition, in assay [3], the “PSII Activity of oxygen evolution” value is 41.35 uMO2/mgChlh. Besides, the “Activity of Hill Reaction” value in assay [4] is recorded as 78.19 uMO2/mgChlh.

As to `CCCCCCCC1NC(=O)C(C(C)=O)=C1O` (stereo not drawn) [Compound 17], in assay [1], the Fv/Fm was determined as 0.82. Further, in assay [2], the “Time of Disease spot” value came to 9.5 ± 2.36 h and the “Average diameter of spot after 24 h” value is given as 7.94 ± 1.30 mm. The “PSII Activity of oxygen evolution” value in assay [3] was 27.04 uMO2/mgChlh. The “Activity of Hill Reaction” value in assay [4] turned out to be 57.13 uMO2/mgChlh.

In the case of `CCCCCCCCC1NC(=O)C(C(C)=O)=C1O` (stereo not drawn) [Compound 18], the Fv/Fm in assay [1] is listed as 0.80. Moreover, in assay [2], the “Time of Disease spot” value turned out to be 12.00 ± 0.48 h and the “Average diameter of spot after 24 h” value stood at 8.27 ± 0.61 mm. Besides, the “PSII Activity of oxygen evolution” value in assay [3] was determined as 39.98 uMO2/mgChlh. The “Activity of Hill Reaction” value in assay [4] amounted to 67.27 uMO2/mgChlh.

Take `CC(=O)C1=C(O)C(Cc2ccccc2)NC1=O` (stereo not drawn) [Compound 19]: the Fv/Fm in assay [1] is given as 0.79. In assay [2], the “Time of Disease spot” value is on record as 24 ± 4.00 h and the “Average diameter of spot after 24 h” value is given as 1.24 ± 0.10 mm. In addition, in assay [3], the “PSII Activity of oxygen evolution” value was found to be 40.07 uMO2/mgChlh. Moreover, the “Activity of Hill Reaction” value in assay [4] is 63.43 uMO2/mgChlh.

Consider `CCCC(c1ccccc1)C1NC(=O)C(C(C)=O)=C1O` (stereo not drawn) [Compound 20], for which, in assay [1], the Fv/Fm is recorded as 0.82. In addition, in assay [2], the “Time of Disease spot” value is 21.1 ± 3.56 h and the “Average diameter of spot after 24 h” value is 1.57 ± 0.04 mm. Further, the “PSII Activity of oxygen evolution” value in assay [3] is listed as 43.40 uMO2/mgChlh. The “Activity of Hill Reaction” value in assay [4] was determined as 57.23 uMO2/mgChlh.

`CC=CC1NC(=O)C(C(C)=O)=C1O` (stereo not drawn) [Compound 21]: the Fv/Fm in assay [1] was found to be 0.77. Further, in assay [2], the “Time of Disease spot” value turned out to be 16.5 ± 1.30 h and the “Average diameter of spot after 24 h” value is given as 2.89 ± 0.14 mm. For the same molecule, in assay [3], the “PSII Activity of oxygen evolution” value was determined as 42.25 uMO2/mgChlh. Further, the “Activity of Hill Reaction” value in assay [4] stood at 62.34 uMO2/mgChlh.

For the molecule `CC(=O)C1=C(O)C(C)(C)NC1=O` [Compound 22], the Fv/Fm in assay [1] is 0.82. In assay [2], the “Time of Disease spot” value is on record as 20.0 ± 1.63 h and the “Average diameter of spot after 24 h” value is 1.76 ± 0.24 mm. Moreover, the “PSII Activity of oxygen evolution” value in assay [3] is reported as 38.05 uMO2/mgChlh. For the same molecule, the “Activity of Hill Reaction” value in assay [4] was 56.16 uMO2/mgChlh.

Regarding `CCC1(CC)NC(=O)C(C(C)=O)=C1O` [Compound 23], the Fv/Fm in assay [1] turned out to be 0.79. Besides, in assay [2], the “Time of Disease spot” value is given as 18.3 ± 2.17 h and the “Average diameter of spot after 24 h” value is 2.23 ± 0.12 mm. Further, the “PSII Activity of oxygen evolution” value in assay [3] stood at 38.24 uMO2/mgChlh. In assay [4], the “Activity of Hill Reaction” value came to 63.28 uMO2/mgChlh.

In assay [1], `CCC1(C)NC(=O)C(C(C)=O)=C1O` (stereo not drawn) [Compound 24] showed a Fv/Fm of 0.83. Further, in assay [2], the “Time of Disease spot” value is 16.21 ± 3.55 h and the “Average diameter of spot after 24 h” value is 2.43 ± 0.07 mm. Also, in assay [3], the “PSII Activity of oxygen evolution” value came out at 43.01 uMO2/mgChlh. The “Activity of Hill Reaction” value in assay [4] came to 71.37 uMO2/mgChlh.

With `CCCC1(CCC)NC(=O)C(C(C)=O)=C1O` [Compound 25], the Fv/Fm in assay [1] amounted to 0.82. Also, in assay [2], the “Time of Disease spot” value was found to be 15.22 ± 2.00 h and the “Average diameter of spot after 24 h” value stood at 2.44 ± 0.10 mm. Further, the “PSII Activity of oxygen evolution” value in assay [3] was determined as 57.12 uMO2/mgChlh. The “Activity of Hill Reaction” value in assay [4] was 97.55 uMO2/mgChlh.

`CCCC1(C)NC(=O)C(C(C)=O)=C1O` (stereo not drawn) [Compound 26] came in with a Fv/Fm in assay [1] of 0.82. In assay [2], the “Time of Disease spot” value was 13.61 ± 1.35 h and the “Average diameter of spot after 24 h” value came out at 3.31 ± 0.07 mm. In addition, in assay [3], the “PSII Activity of oxygen evolution” value came to 58.01 uMO2/mgChlh. The “Activity of Hill Reaction” value in assay [4] was 89.15 uMO2/mgChlh.

Take `CCCC1(CC)NC(=O)C(C(C)=O)=C1O` (stereo not drawn) [Compound 27]: the Fv/Fm in assay [1] is listed as 0.81. In assay [2], the “Time of Disease spot” value was 14.2 ± 4.15 h and the “Average diameter of spot after 24 h” value worked out at 3.18 ± 0.93 mm. The “PSII Activity of oxygen evolution” value in assay [3] was found to be 53.24 uMO2/mgChlh. Besides, the “Activity of Hill Reaction” value in assay [4] is 91.45 uMO2/mgChlh.

For `CCCCC1(CCCC)NC(=O)C(C(C)=O)=C1O` [Compound 28], in assay [1], the Fv/Fm is reported as 0.82. For the same molecule, in assay [2], the “Time of Disease spot” value worked out at 16.9 ± 2.25 h and the “Average diameter of spot after 24 h” value is 2.40 ± 0.11 mm. In addition, in assay [3], the “PSII Activity of oxygen evolution” value was determined as 31.76 uMO2/mgChlh. In addition, the “Activity of Hill Reaction” value in assay [4] stood at 75.03 uMO2/mgChlh.

In turn, `CCCCC1(CC)NC(=O)C(C(C)=O)=C1O` (stereo not drawn) [Compound 30] showed a Fv/Fm in assay [1] of 0.79. Also, in assay [2], the “Time of Disease spot” value is on record as 13.3 ± 2.00 h and the “Average diameter of spot after 24 h” value turned out to be 4.53 ± 1.03 mm. Moreover, in assay [3], the “PSII Activity of oxygen evolution” value is given as 22.78 uMO2/mgChlh. The “Activity of Hill Reaction” value in assay [4] stood at 47.33 uMO2/mgChlh.

In assay [1], `CCC(C)(C)C1NC(=O)C(C(C)=O)=C1O` (stereo not drawn) [Compound 32] came in with a Fv/Fm of 0.82. Further, in assay [2], the “Time of Disease spot” value amounted to 12.5 ± 3.75 h and the “Average diameter of spot after 24 h” value stood at 4.82 ± 1.44 mm. The “PSII Activity of oxygen evolution” value in assay [3] is 32.13 uMO2/mgChlh. For the same molecule, the “Activity of Hill Reaction” value in assay [4] was 63.42 uMO2/mgChlh.

The molecule `CC(=O)C1=C(O)C(CCC(C)C)NC1=O` (stereo not drawn) [Compound 33] registered a Fv/Fm in assay [1] of 0.79. For the same molecule, in assay [2], the “Time of Disease spot” value is reported as 13.5 ± 0.75 h and the “Average diameter of spot after 24 h” value was 4.17 ± 1.15 mm. In addition, the “PSII Activity of oxygen evolution” value in assay [3] came to 26.54 uMO2/mgChlh. Besides, the “Activity of Hill Reaction” value in assay [4] is 51.94 uMO2/mgChlh.

`CC(=O)C1=C(O)C(CC(=O)O)NC1=O` (stereo not drawn) [Compound 34] gave a Fv/Fm in assay [1] of 0.81. Besides, in assay [2], the “Time of Disease spot” value amounted to 24.0 ± 0.02 h and the “Average diameter of spot after 24 h” value was determined as 1 ± 0.86 mm. In addition, in assay [3], the “PSII Activity of oxygen evolution” value came out at 35.11 uMO2/mgChlh. Moreover, the “Activity of Hill Reaction” value in assay [4] is 65.73 uMO2/mgChlh.

As to `CCCC(C#N)C1NC(=O)C(C(C)=O)=C1O` (stereo not drawn) [Compound 38], the Fv/Fm in assay [1] worked out at 0.81. In assay [2], the “Time of Disease spot” value was found to be 13.6 ± 0.50 h and the “Average diameter of spot after 24 h” value is 9.82 ± 0.02 mm. The “PSII Activity of oxygen evolution” value in assay [3] stood at 40.41 uMO2/mgChlh. The “Activity of Hill Reaction” value in assay [4] came to 64.69 uMO2/mgChlh.

`CC(=O)C1=C(O)C(C(C)C)NC1=O` (stereo not drawn) [Compound 39]: the Fv/Fm in assay [1] was 0.80. Moreover, in assay [2], the “Time of Disease spot” value stood at 16.5 ± 2.15 h and the “Average diameter of spot after 24 h” value came to 4.89 ± 0.37 mm. Besides, the “PSII Activity of oxygen evolution” value in assay [3] is given as 33.79 uMO2/mgChlh. For the same molecule, the “Activity of Hill Reaction” value in assay [4] worked out at 62.72 uMO2/mgChlh.

`CSCCC1NC(=O)C(C(C)=O)=C1O` (stereo not drawn) [Compound 41] yielded a Fv/Fm in assay [1] of 0.83. Besides, in assay [2], the “Time of Disease spot” value is reported as 20.8 ± 3.00 h and the “Average diameter of spot after 24 h” value is 2.45 ± 0.24 mm. For the same molecule, the “PSII Activity of oxygen evolution” value in assay [3] came out at 41.32 uMO2/mgChlh. Also, the “Activity of Hill Reaction” value in assay [4] amounted to 59.07 uMO2/mgChlh.

Molecule `CCC(C)C1NC(=O)C(C(=O)CCCl)=C1O` (stereo not drawn) [Compound 43] displayed a Fv/Fm in assay [1] of 0.83. Moreover, in assay [2], the “Time of Disease spot” value is on record as 20.1 ± 1.15 h and the “Average diameter of spot after 24 h” value came to 2.30 ± 0.28 mm. In addition, the “PSII Activity of oxygen evolution” value in assay [3] came to 47.80 uMO2/mgChlh. In addition, the “Activity of Hill Reaction” value in assay [4] is given as 63.35 uMO2/mgChlh.
